Experiments:
Assay type in all cases: functional
[1] = test system: UACC-62; assay: Growth inhibition of human UACC62 cells assessed as cell growth at 3X10'-7 M after 48 hrs by sulforhodamine B assay; conditions: UACC-62, 48 h, read-out: Activity
[2] = test system: SF-539; assay: Growth inhibition of human SF539 cells assessed as cell growth at 3X10'-6 M after 48 hrs by sulforhodamine B assay; conditions: SF-539, 48 h, read-out: Activity
[3] = test system: MOLT-4; assay: Growth inhibition of human MOLT4 cells assessed as cell growth at 3X10'-7 M after 48 hrs by sulforhodamine B assay; conditions: MOLT-4, 48 h, read-out: Activity
[4] = test system: COLO 205; assay: Growth inhibition of human COLO205 cells assessed as cell growth at 3X10'-8 M after 48 hrs by sulforhodamine B assay; conditions: COLO 205, 48 h, read-out: Activity
[5] = test system: PC-3; assay: Growth inhibition of human PC3 cells assessed as cell growth at 3X10'-7 M after 48 hrs by sulforhodamine B assay; conditions: PC-3, 48 h, read-out: Activity
[6] = test system: NCI-H226; assay: Growth inhibition of human NCI-H226 cells assessed as cell growth at 3X10'-5 M after 48 hrs by sulforhodamine B assay; conditions: NCI-H226, 48 h, read-out: Activity
[7] = test system: ACHN; assay: Growth inhibition of human ACHN cells assessed as cell growth at 3X10'-5 M after 48 hrs by sulforhodamine B assay; conditions: read-out: Activity
[8] = test system: A498; assay: Growth inhibition of human A498 cells assessed as cell growth at 3X10'-7 M after 48 hrs by sulforhodamine B assay; conditions: A498, 48 h, read-out: Activity
[9] = test system: UO-31; assay: Growth inhibition of human UO31 cells assessed as cell growth at 3X10'-6 M after 48 hrs by sulforhodamine B assay; conditions: UO-31, 48 h, read-out: Activity
[10] = test system: DU-145; assay: Growth inhibition of human DU145 cells assessed as cell growth at 3X10'-7 M after 48 hrs by sulforhodamine B assay; conditions: DU-145, 48 h, read-out: Activity
[11] = test system: HL-60(TB); assay: Growth inhibition of human HL-60(TB) cells assessed as cell growth at 3X10'-7 M after 48 hrs by sulforhodamine B assay; conditions: HL-60, 48 h, read-out: Activity
[12] = Growth inhibition of human NCI-ADR-RES cells assessed as cell growth at 3X10'-9 M after 48 hrs by sulforhodamine B assay; conditions: read-out: Activity
[13] = test system: MCF7; assay: Growth inhibition of human MCF7 cells assessed as cell growth at 3X10'-9 M after 48 hrs by sulforhodamine B assay; conditions: MCF7, 48 h, read-out: Activity
[14] = test system: BT-549; assay: Growth inhibition of human BT549 cells assessed as cell growth at 3X10'-5 M after 48 hrs by sulforhodamine B assay; conditions: BT-549, 48 h, read-out: Activity
[15] = test system: M14; assay: Growth inhibition of human M14 cells assessed as cell growth at 3X10'-6 M after 48 hrs by sulforhodamine B assay; conditions: M14, 48 h, read-out: Activity
[16] = test system: MDA-MB-468; assay: Growth inhibition of human MDA-MB-468 cells assessed as cell growth at 3X10'-7 M after 48 hrs by sulforhodamine B assay; conditions: MDA-MB-468, 48 h, read-out: Activity
[17] = test system: RPMI-8226; assay: Growth inhibition of human RPMI8226 cells assessed as cell growth at 3X10'-6 M after 48 hrs by sulforhodamine B assay; conditions: RPMI-8226, 48 h, read-out: Activity
[18] = Growth inhibition of human HCC2998 cells assessed as cell growth at 3X10'-5 M after 48 hrs by sulforhodamine B assay; conditions: HCC 2998, 48 h, read-out: Activity
[19] = test system: NCI-H23; assay: Growth inhibition of human NCI-H23 cells assessed as cell growth at 3X10'-7 M after 48 hrs by sulforhodamine B assay; conditions: NCI-H23, 48 h, read-out: Activity
[20] = test system: MCF7; assay: Growth inhibition of human MCF7 cells assessed as cell growth at 3X10'-6 M after 48 hrs by sulforhodamine B assay; conditions: MCF7, 48 h, read-out: Activity
[21] = test system: K562; assay: Growth inhibition of human K562 cells assessed as cell growth at 3X10'-8 M after 48 hrs by sulforhodamine B assay; conditions: K562, 48 h, read-out: Activity
[22] = test system: RPMI-8226; assay: Growth inhibition of human RPMI8226 cells assessed as cell growth at 3X10'-5 M after 48 hrs by sulforhodamine B assay; conditions: RPMI-8226, 48 h, read-out: Activity
[23] = test system: CCRF-CEM; assay: Growth inhibition of human CCRF-CEM cells assessed as cell growth at 3X10'-6 M after 48 hrs by sulforhodamine B assay; conditions: read-out: Activity
[24] = test system: SF-295; assay: Growth inhibition of human SF295 cells assessed as cell growth at 3X10'-5 M after 48 hrs by sulforhodamine B assay; conditions: SF-295, 48 h, read-out: Activity
[25] = test system: UO-31; assay: Growth inhibition of human UO31 cells assessed as cell growth at 3X10'-9 M after 48 hrs by sulforhodamine B assay; conditions: UO-31, 48 h, read-out: Activity
[26] = test system: 786-0; assay: Growth inhibition of human 786-0 cells assessed as cell growth at 3X10'-7 M after 48 hrs by sulforhodamine B assay; conditions: 786-0, 48 h, read-out: Activity
[27] = test system: A549; assay: Growth inhibition of human A549/ATCC cells assessed as cell growth at 3X10'-6 M after 48 hrs by sulforhodamine B assay; conditions: A549, 48 h, read-out: Activity
[28] = test system: BT-549; assay: Growth inhibition of human BT549 cells assessed as cell growth at 3X10'-6 M after 48 hrs by sulforhodamine B assay; conditions: BT-549, 48 h, read-out: Activity
[29] = test system: HOP-62; assay: Growth inhibition of human HOP62 cells assessed as cell growth at 3X10'-6 M after 48 hrs by sulforhodamine B assay; conditions: HOP-62, 48 h, read-out: Activity
[30] = test system: U-251; assay: Growth inhibition of human U251 cells assessed as cell growth at 3X10'-5 M after 48 hrs by sulforhodamine B assay; conditions: U-251, 48 h, read-out: Activity
[31] = test system: MOLT-4; assay: Growth inhibition of human MOLT4 cells assessed as cell growth at 3X10'-9 M after 48 hrs by sulforhodamine B assay; conditions: MOLT-4, 48 h, read-out: Activity
[32] = Growth inhibition of human HCC2998 cells assessed as cell growth at 3X10'-6 M after 48 hrs by sulforhodamine B assay; conditions: HCC 2998, 48 h, read-out: Activity
[33] = test system: UACC-257; assay: Growth inhibition of human UACC257 cells assessed as cell growth at 3X10'-5 M after 48 hrs by sulforhodamine B assay; conditions: UACC-257, 48 h, read-out: Activity
[34] = test system: NCI-H522; assay: Growth inhibition of human NCI-H522 cells assessed as cell growth at 3X10'-5 M after 48 hrs by sulforhodamine B assay; conditions: NCI-H522, 48 h, read-out: Activity

SMILES	growth at 0.3 µM [1]	growth at 3 µM [2]	growth at 0.3 µM [3]	growth at 0.03 µM [4]	growth at 0.3 µM [5]	growth at 30 µM [6]	growth at 30 µM [7]	growth at 0.3 µM [8]	growth at 3 µM [9]	growth at 0.3 µM [10]	growth at 0.3 µM [11]	growth at 0.003 µM [12]	growth at 0.003 µM [13]	growth at 30 µM [14]	growth at 3 µM [15]	growth at 0.3 µM [16]	growth at 3 µM [17]	growth at 30 µM [18]	growth at 0.3 µM [19]	growth at 3 µM [20]	further results
COc1cc(-c2nn(-c3cccc(NC(=O)c4ccc(Cl)c(C(F)(F)F)c4)c3)cc2-c2ccncc2)ccc1Cl	92%	57%	98%	97%	78%	23%	32%	82%	29%	98%	116%	97%	93%	29%	47%	89%	31%	29%	92%	42%	growth at 0.03 µM [21]: 100%; growth at 30 µM [22]: 5%; growth at 3 µM [23]: 32%; growth at 30 µM [24]: -10%; growth at 0.003 µM [25]: 82%; growth at 0.3 µM [26]: 99%; growth at 3 µM [27]: 44%; growth at 3 µM [28]: 62%; growth at 3 µM [29]: 73%; growth at 30 µM [30]: 15%; growth at 0.003 µM [31]: 100%; growth at 3 µM [32]: 63%; growth at 30 µM [33]: 32%; growth at 30 µM [34]: -7%
O=C(Nc1cccc(-n2cc(-c3ccncc3)c(-c3ccc(Cl)c(O)c3)n2)c1)Nc1ccc(Cl)c(C(F)(F)F)c1	89%	-14%	83%	100%	73%	5%	2%	95%	-3%	97%	138%	102%	93%	-19%	-7%	72%	-20%	-64%	93%	2%	growth at 0.03 µM [21]: 105%; growth at 30 µM [22]: -15%; growth at 3 µM [23]: -7%; growth at 30 µM [24]: -41%; growth at 0.003 µM [25]: 94%; growth at 0.3 µM [26]: 96%; growth at 3 µM [27]: 7%; growth at 3 µM [28]: 12%; growth at 3 µM [29]: 11%; growth at 30 µM [30]: -80%; growth at 0.003 µM [31]: 110%; growth at 3 µM [32]: 7%; growth at 30 µM [33]: -90%; growth at 30 µM [34]: -55%
